Laboratory results: patent US20120309821A1, “Use of epigallocatechin-3-gallate for immune regulation” (NATIONAL DEFENSE MEDICAL CENTER, priority 2011, published 2012)

Columns and labels:
Assay type in all cases: in vivo, mouse
[1] = system: NZB/W F1 lupus-prone mice; experiment: Kidney histopathological evaluation (H&E); settings: 120 mg/kg by gavage daily; week 34; H&E kidney sections; vs disease control mice
Protocol: (§1) Female NZB/W F1 mice were purchased from the Animal Center of the National Taiwan University (Taipei, Taiwan, ROC) and, at 12 weeks of age, were divided into two groups, one of which was given normal saline and served as the disease control, while the other was given 120 mg/kg body weight of EGCG (Ryss Lab, Inc., CA, USA) (this dose is a slight modification of those used in previous in vivo studies) by gavage daily till sacrificed at 34-weeks-old. 8-Week-old NZB/W F1 female mice (prior to onset of autoantibody production) were used as normal controls. Urine samples were collected in metabolic cages every 2 weeks and urine protein levels were measured, and serum samples were used to measure serum levels of blood urea nitrogen (BUN) and creatinine (Cr) as described previously (Ka, S. M. et al. Decoy receptor 3 ameliorates an autoimmune crescentic glomerulonephritis model in mice. J Am Soc Nephrol 18:2473-2485; 2007). All animal experiments were performed upon the ethical approval of the Institutional Animal Care and Use Committee of the National Defense Medical Center, Taiwan and according to the ethical rules in the NIH Guide for the Care and Use of Laboratory Animals. Formalin-fixed and paraffin-embedded renal sections were prepared for pathologic evaluation.

[2] = system: anti-dsDNA antibodies; experiment: Serum anti-dsDNA antibody ELISA; settings: 120 mg/kg by gavage daily; week 34; increase over normal control
Protocol: as §1, with “[…] Serum levels of anti-dsDNA antibodies” for “All animal experiments”, “measured using an anti-mouse dsDNA enzyme-linked immunosorbent assay (ELISA) kit (Alpha Diagnostic, TX, USA)” for “performed upon the ethical approval of the Institutional Animal Care and Use Committee of the National Defense Medical Center, Taiwan and”, “manufacturer's instructions. The absorbance at 450 nm was measured using an ELISA plate reader (Bio-Tek, VT, USA).” for “ethical rules in the NIH Guide for the Care and Use of Laboratory Animals. Formalin-fixed and paraffin-embedded renal sections were prepared for pathologic evaluation.”

[3] = system: superoxide anion; experiment: Kidney in-situ ROS production by dihydroethidium (DHE) labeling; settings: 120 mg/kg by gavage daily, week 34
Protocol: as §1, with “[…] Kidney in situ superoxide anion production was determined by dihydroethidium (DHE) labeling. Fluorescent images” for “All animal experiments”, “quantified by counting” for “performed upon”, “percentage” for “ethical approval”, “positive nuclei” for “the Institutional Animal Care and Use Committee of the National Defense Medical Center, Taiwan and according to the ethical rules”, “total nuclei per kidney cross-section. Superoxide anion levels in serum and kidney tissues were measured as described previously and” for “NIH Guide for”, “results expressed as reactive luminescence units (RLU) per 15 min per milligram dry weight (i.e., RLU/15 min/mg dry weight).” for “Care and Use of Laboratory Animals. Formalin-fixed and paraffin-embedded renal sections were prepared for pathologic evaluation.”

[4] = system: NLRP3; experiment: Western blot of NLRP3 in kidney; settings: 120 mg/kg by gavage daily; week 34; increase seen in disease control
Protocol: as §1, with “[…] Antibodies to histone H3 (Cell Signaling) or β-actin (Santa Cruz) were used as internal controls for the nuclear” for “Formalin-fixed”, “cytosolic target proteins, respectively.” for “paraffin-embedded renal sections were prepared for pathologic evaluation.”

[5] = system: caspase-1; experiment: Western blot of caspase-1 p20 in kidney; settings: 120 mg/kg by gavage daily, week 34
Protocol: as §1, with “[…] Antibodies to histone H3 (Cell Signaling) or β-actin (Santa Cruz) were used as internal controls for the nuclear” for “Formalin-fixed”, “cytosolic target proteins, respectively.” for “paraffin-embedded renal sections were prepared for pathologic evaluation.”

With Epigallocatechin-3-gallate [EGCG] the “severe renal lesions (glomerular proliferation, crescents, interstitial inflammation, fibrosis)” value [1] was “greatly reduced”, the “serum anti-dsDNA antibody levels” value [2] was “not inhibited” and the “DHE fluorescence (in-situ ROS production in renal tissue)” value [3] was “very low”. The “levels of NLRP3 protein in kidney tissues” value [4] was “inhibited” and the “caspase-1 activation (appearance of the p20 subunit) in kidney” value [5] was “significantly inhibited”.
